In general, EC50 refers to the concentration needed to bring the measured effect to its halfway point. By IC50 is commonly meant the concentration that gives 50% inhibition.

24 molecules from ChEMBL document CHEMBL4425162, “Discovery of potent wall teichoic acid early stage inhibitors” (Bioorg Med Chem Lett, 2016) can be followed below.

Active and inactive are the calls of the source. No cut-off for these calls is given here.

Assay [1] concerns Staphylococcus aureus subsp. aureus COL. Nature of the assay: Inhibition of Staphylococcus aureus COL TarO assessed as concentration of compound for potentiation of action of imipenem-mediated bacterial growth inhibition.
Assay [2] can be described thus: Inhibition of Methicillin-resistant Staphylococcus aureus COL TarO assessed as suppression of bacteriophageK-mediated cell lysis. Further details: species or system Staphylococcus aureus subsp. aureus COL.
Assay [3] can be described thus: Binding affinity to Methicillin-resistant Staphylococcus aureus COL TarG assessed as suppression of targocil-mediated bacterial growth inhibition after 20 hrs in presence of L-638. Further details: species or system Staphylococcus aureus subsp. aureus COL.
Assay [4] concerns Staphylococcus aureus. The assay is described as follows: Inhibition of Methicillin-resistant Staphylococcus aureus TarO assessed as percentage of MRSA MITC<=25 uM for 25 isolates. More on the design: scale not given: the % may be the effect or the level left.
The test system of assay [5] is Staphylococcus epidermidis. The assay is described as follows: Inhibition of Methicillin-resistant Staphylococcus epidermidis TarO assessed as percentage of MRSE MITC<=25 uM for 25 isolates. More on the design: scale not given: the % may be the effect or the level left.
Assay [6] can be described thus: Inhibition of Staphylococcus aureus TarO. Further details: species or system Staphylococcus aureus subsp. aureus COL.
Assay [7] is described as follows: Inhibition of TarA (unknown origin) at 200 uM.
A short description of assay [8]: Inhibition of mnaA (unknown origin) at 200 uM.

For `CCN(C(=O)CCn1c2cc(Br)ccc2nc1[C@H]1CC[C@H](CC)CC1)C1CCCCC1`, in assay [1], the MITC95 stood at 0.031 µM. For the same molecule, the EC50 came to 0.24 µM in assay [2] and 0.33 µM in assay [3]. In addition, the Activity in assay [4] worked out at 68%; in assay [5] it was 42%.
Take `O=C(CCn1c(C2CCCCC2)nc2ccccc21)NC1CCCCC1`: the MITC95 in assay [1] was found to be 25 µM. Besides, the EC50 in assay [2] was 200 µM; in assay [3], 138 µM.
`CCN(C(=O)CCn1c(N2CCC(C)CC2)nc2ccccc21)C1CCCCC1`: the MITC95 in assay [1] was found to be 1.3 µM. Besides, the EC50 in assay [2] worked out at 3.8 µM; in assay [3], 0.91 µM.
On to `CCN(C(=O)CCn1c(C2CCCCC2)nc2ccccc21)C1CCCCCC1`, for which, in assay [1], the MITC95 was determined as 4.7 µM. Further, the EC50 in assay [2] and in assay [3] was 200 µM each time.
Regarding `CCC1CCN(c2nc3ccccc3n2CCC(=O)N(CC)C2CCCCC2)CC1`, in assay [1], the MITC95 stood at 0.1 µM. For the same molecule, the values for the EC50 in assay [2] and in assay [3] were 0.39 µM and 0.22 µM, respectively.
In the case of `CN(C(=O)CCn1c(C2CCCCC2)nc2ccccc21)C1CCCCC1`, in assay [1], the MITC95 was 4.7 µM. Besides, the EC50 stood at 25 µM in assay [2] and 11.4 µM in assay [3].
`CCN(C(=O)CCn1c2cccc(Br)c2nc1[C@H]1CC[C@H](CC)CC1)C1CCCCC1`: the MITC95 in assay [1] was found to be 0.3 µM. The figures for the EC50 in assay [2] and in assay [3] were 3.4 µM and 1.3 µM, respectively. Moreover, the Activity in assay [4] was determined as 68%; in assay [5], 83%.
In the case of `CCN(C(=O)CCn1c(C2CCC(C(C)(C)C)CC2)nc2ccccc21)C1CCCCC1` (stereo not given), the MITC95 in assay [1] was determined as 0.015 µM. In addition, the EC50 in assay [2] was determined as 0.25 µM; in assay [3] it was 0.05 µM.
As to `CCN(C(=O)CCn1c(C2CCCCC2)nc2ccccc21)c1ccccc1`, the MITC95 in assay [1] was 50 µM. The EC50 in assay [2] and in assay [3] was 200 µM each time.
With `CCN(C(=O)CCn1c(C2CCCCC2)nc2ccccc21)C1CCCC1`, the MITC95 in assay [1] stood at 12.5 µM. Moreover, the EC50 in assay [2] is 200 µM; in assay [3], 29.7 µM.
As for `CCCN(C(=O)CCn1c(C2CCCCC2)nc2ccccc21)C1CCCCC1`, the MITC95 in assay [1] was determined as 6.2 µM. The EC50 in assay [2] came out at 200 µM; in assay [3], 7.8 µM.
Consider `CC1(C)[C@@H]2CC[C@@]1(C)[C@@H](NC(=O)CCn1c(C3CCCCC3)nc3ccccc31)C2`, for which the MITC95 in assay [1] was 16.7 µM. The EC50 in assay [2] turned out to be 178 µM; in assay [3], 57.7 µM.
Consider `CCN(C(=O)CCn1c(N2CCCCC2)nc2ccccc21)C1CCCCC1`, for which, in assay [1], the MITC95 came out at 4.7 µM. For the same molecule, the EC50 was above 200 µM in assay [2] and 7 µM in assay [3].
As for `CCN(C(=O)CCn1c(N2CCC(C(C)(C)C)CC2)nc2ccccc21)C1CCCCC1`, the MITC95 in assay [1] is 0.016 µM. The figures for the EC50 in assay [2] and in assay [3] were 0.25 µM and 0.13 µM, respectively. Besides, the values for the Activity in assay [4] and in assay [5] were 76% and 29%, respectively.
Regarding `CCN(C(=O)CCn1c(C2CCCCC2)nc2ccccc21)C1CCCCC1`, in assay [1], the MITC95 was found to be 1.9 µM. Further, the EC50 in assay [2] was found to be 10.1 µM; in assay [3] it was 6.2 µM.
`CC(=O)N1CCC(c2nc3ccccc3n2CCC(=O)N[C@H]2CC3CC[C@@]2(C)C3(C)C)CC1`: the MITC95 in assay [1] was above 200 µM. Also, the EC50 in assay [2] and in assay [3] was above 200 µM each time.
For `CCN1CCC(c2nc3ccccc3n2CCC(=O)N[C@H]2CC3CC[C@@]2(C)C3(C)C)CC1`, the MITC95 in assay [1] was above 200 µM. In addition, the concentration for a half-maximal effect (EC50) in assay [2] and in assay [3] was above 200 µM in each case.
`CCC1CCC(c2nc3ccccc3n2CCC(=O)N(CC)C2CCCCC2)CC1` (stereo not given): the MITC95 in assay [1] is 0.03 µM. Moreover, the concentration giving a half-maximal response (EC50) turned out to be 0.22 µM in assay [2] and 0.24 µM in assay [3].
Turning to `CC1(C)C2CC[C@]1(C)[C@@H](NC(=O)CCn1c(C3CCNCC3)nc3ccccc31)C2`, the MITC95 in assay [1] is above 200 µM. For the same molecule, the 50% effective concentration (EC50) in assay [2] and in assay [3] was above 200 µM throughout.
As for `CCN(C(=O)CCn1c2ccc(Br)cc2nc1[C@H]1CC[C@H](CC)CC1)C1CCCCC1`, in assay [1], the MITC95 was 0.004 µM. The figures for the EC50 in assay [2] and in assay [3] were 0.027 µM and 0.015 µM, respectively. Also, the Activity in assay [4] is 80%; in assay [5], 46%.
The molecule `CC1(C)[C@@H]2CC[C@@]1(C)[C@H](NC(=O)CCn1c(C3CCCCC3)nc3ccccc31)C2` returned an IC50 in assay [6] of 0.4 µM. The MITC95 in assay [1] is 1.6 µM. Further, the inhibition result in assay [7] and in assay [8] was “inactive” each time. Further, the EC50 in assay [2] is 7.9 µM; in assay [3], 2.4 µM.
For `CC1(C)C2CC[C@]1(C)[C@@H](NC(=O)CCn1c(C3CCN(S(C)(=O)=O)CC3)nc3ccccc31)C2`, the MITC95 in assay [1] is above 200 µM. The EC50 in assay [2] and in assay [3] was above 200 µM throughout.
Consider `CC(C)(C)OC(=O)N1CCC(c2nc3ccccc3n2CCC(=O)N[C@H]2CC3CC[C@@]2(C)C3(C)C)CC1`, for which the MITC95 in assay [1] amounted to 9.4 µM. In addition, the results for the 50% effective concentration (EC50) in assay [2] and in assay [3] were 162 µM and 58.7 µM, respectively.
Turning to `CCN(C(=O)CCn1c2cccc(C)c2nc1[C@H]1CC[C@H](CC)CC1)C1CCCCC1`, the MITC95 in assay [1] was found to be 0.1 µM. In addition, the figures for the EC50 in assay [2] and in assay [3] were 0.9 µM and 0.8 µM, respectively. Also, the Activity in assay [4] is 68%; in assay [5] it was 92%.
